Literature values as cited in US20090017243A1, “Conveyor lubricant, passivation of a thermoplastic container to stress cracking and thermoplastic stress crack inhibitor” (Ecolab Inc., priority 1999, published 2009).

Settings: 96 wt. % solution of glycerol in water

## OCC(O)CO [glycerol]
  specific gravity: 1.25
